Where “and” joins values, the source holds several entries; their conditions need not be identical. Equal entries are not always repeated.
Key:
[1] = test system: Listeria monocytogenes; assay: L. monocytogenes on cooked ground turkey balls blended with ε-polylysine, vacuum packaged, stored at 10° C., CFU determination; format: cell-based; details: for Log Reduction: vs control Group A
Description: Six groups of 20 g ground uncooked turkey balls were prepared, with 27 balls prepared per group. […] Groups B-F were blended with varying amounts of ε-polylysine (“ε-PL”). Final concentrations of ε-polylysine within the turkey balls were:
After preparation, all meatballs were placed on baking sheets and baked in a conventional oven at 350° F. for 20 minutes. After baking, the meatballs were packaged separately and stored at 4° C.
The mixture was further diluted 1:10,000 times with sterile saline to produce a suspension for use.
20 microliters of the Listeria monocytogenes suspension was inoculated onto the exterior of each turkey ball. Turkey balls were incubated at room temperature for 30 min post-inoculation to allow bacteria to attach. Turkey balls were individually vacuum packaged and stored at 10° C.
The microbiological assay was performed after 3 hours, 24 hours, 1 week, 2 weeks, 3 weeks, 4 weeks, 5 weeks, 7 weeks, and 8 weeks. After each designated time period had passed, three bags from each group of meat balls were unpacked, transferred to a stomacher bag along with 20 ml of sterile 0.1% peptone water. Each meatball was hand crushed and stomached at high speed for 2 minutes. […] The letter “{overscore (A)}” denotes average.

[2] = test system: many bacteria; details: Shima et al., 1984; Hiraki, 2000; cited from earlier work

poly(imino(2-amino-1-oxo-1,6-hexanediyl)) [ε-PL]
Log Reduction ([1]; 3000 ppm ε-PL, after 7 weeks): >7.34 | CFU/g ([1]; 3000 ppm ε-PL, after 8 weeks): <2.00E+00 CFU/g | average Log Value ([1]; 3000 ppm ε-PL, after 8 weeks): <0.30 | average of CFU/g ([1]; 3000 ppm ε-PL, after 8 weeks): <2.00E+00 CFU/g | Log Reduction ([1]; 3000 ppm ε-PL, after 8 weeks): >8.03 | average Log Value ([1]; 3000 ppm ε-PL, after 3 hours): 1.51 | average of CFU/g ([1]; 3000 ppm ε-PL, after 3 hours): 3.20E+01 CFU/g | Log Reduction ([1]; 3000 ppm ε-PL, after 3 hours): 1.28 | CFU/g ([1]; 3000 ppm ε-PL, after 24 hours): 5.00E+01 CFU/g and 6.40E+01 CFU/g and 7.20E+01 CFU/g | average Log Value ([1]; 3000 ppm ε-PL, after 24 hours): 1.79 | average of CFU/g ([1]; 3000 ppm ε-PL, after 24 hours): 6.20E+01 CFU/g | Log Reduction ([1]; 3000 ppm ε-PL, after 24 hours): >1.93 | average Log Value ([1]; 4000 ppm ε-PL, after 1 week): <0.52 | average of CFU/g ([1]; 4000 ppm ε-PL, after 1 week): <3.35E+00 CFU/g | Log Reduction ([1]; 4000 ppm ε-PL, after 1 week): >7.76 | CFU/g ([1]; 4000 ppm ε-PL, after 2 weeks): <2.00E+00 CFU/g | average Log Value ([1]; 4000 ppm ε-PL, after 2 weeks): <0.30 | average of CFU/g ([1]; 4000 ppm ε-PL, after 2 weeks): <2.00E+00 CFU/g | Log Reduction ([1]; 4000 ppm ε-PL, after 2 weeks): >7.29 | CFU/g ([1]; 4000 ppm ε-PL, after 3 weeks): <2.00E+00 CFU/g | average Log Value ([1]; 4000 ppm ε-PL, after 3 weeks): <0.3 | average of CFU/g ([1]; 4000 ppm ε-PL, after 3 weeks): <2.00E+00 CFU/g | Log Reduction ([1]; 4000 ppm ε-PL, after 3 weeks): >8.09 | CFU/g ([1]; 4000 ppm ε-PL, after 4 weeks): 2.00E+00 CFU/g and <2.00E+00 CFU/g | average Log Value ([1]; 4000 ppm ε-PL, after 4 weeks): <0.30 | average of CFU/g ([1]; 4000 ppm ε-PL, after 4 weeks): <2.00E+00 CFU/g | Log Reduction ([1]; 4000 ppm ε-PL, after 4 weeks): >8.17 | CFU/g ([1]; 4000 ppm ε-PL, after 5 weeks): <2.00E+00 CFU/g | average Log Value ([1]; 4000 ppm ε-PL, after 5 weeks): <0.30 | average of CFU/g ([1]; 4000 ppm ε-PL, after 5 weeks): <2.00E+00 CFU/g | Log Reduction ([1]; 4000 ppm ε-PL, after 5 weeks): >8.12 | CFU/g ([1]; 4000 ppm ε-PL, after 7 weeks): <2.00E+00 CFU/g | average Log Value ([1]; 4000 ppm ε-PL, after 7 weeks): <0.30 | average of CFU/g ([1]; 4000 ppm ε-PL, after 7 weeks): <2.00E+00 CFU/g | Log Reduction ([1]; 4000 ppm ε-PL, after 7 weeks): >8.12 | CFU/g ([1]; 4000 ppm ε-PL, after 8 weeks): <2.00E+00 CFU/g | average Log Value ([1]; 4000 ppm ε-PL, after 8 weeks): <0.30 | average of CFU/g ([1]; 4000 ppm ε-PL, after 8 weeks): <2.00E+00 CFU/g | Log Reduction ([1]; 4000 ppm ε-PL, after 8 weeks): >8.03 | average Log Value ([1]; 4000 ppm ε-PL, after 3 hours): <1.17 | average of CFU/g ([1]; 4000 ppm ε-PL, after 3 hours): <1.47E+01 CFU/g | Log Reduction ([1]; 4000 ppm ε-PL, after 3 hours): >1.62 | average Log Value ([1]; 4000 ppm ε-PL, after 24 hours): 1.29 | average of CFU/g ([1]; 4000 ppm ε-PL, after 24 hours): 1.93E+01 CFU/g | Log Reduction ([1]; 4000 ppm ε-PL, after 24 hours): >2.44 | average Log Value ([1]; 5000 ppm ε-PL, after 1 week): 1.95 | average of CFU/g ([1]; 5000 ppm ε-PL, after 1 week): 8.87E+01 CFU/g | Log Reduction ([1]; 5000 ppm ε-PL, after 1 week): 6.33 | average Log Value ([1]; 5000 ppm ε-PL, after 2 weeks): <0.30 | average of CFU/g ([1]; 5000 ppm ε-PL, after 2 weeks): <2.00E+00 CFU/g | Log Reduction ([1]; 5000 ppm ε-PL, after 2 weeks): >7.99 | CFU/g ([1]; 5000 ppm ε-PL, after 3 weeks): <2.00E+00 CFU/g | average Log Value ([1]; 5000 ppm ε-PL, after 3 weeks): <0.30 | average of CFU/g ([1]; 5000 ppm ε-PL, after 3 weeks): <2.00E+00 CFU/g | Log Reduction ([1]; 5000 ppm ε-PL, after 3 weeks): >8.09 | average Log Value ([1]; 5000 ppm ε-PL, after 4 weeks): <0.30 | average of CFU/g ([1]; 5000 ppm ε-PL, after 4 weeks): <2.00E+00 CFU/g | Log Reduction ([1]; 5000 ppm ε-PL, after 4 weeks): <8.17 | CFU/g ([1]; 5000 ppm ε-PL, after 5 weeks): <2.00E+00 CFU/g | average Log Value ([1]; 5000 ppm ε-PL, after 5 weeks): <0.30 | average of CFU/g ([1]; 5000 ppm ε-PL, after 5 weeks): <2.00E+00 CFU/g | Log Reduction ([1]; 5000 ppm ε-PL, after 5 weeks): >8.12 | CFU/g ([1]; 5000 ppm ε-PL, after 7 weeks): <2.00E+00 CFU/g | average Log Value ([1]; 5000 ppm ε-PL, after 7 weeks): <0.30 | average of CFU/g ([1]; 5000 ppm ε-PL, after 7 weeks): <2.00E+00 CFU/g | Log Reduction ([1]; 5000 ppm ε-PL, after 7 weeks): >8.12 | CFU/g ([1]; 5000 ppm ε-PL, after 8 weeks): <2.00E+00 CFU/g | average Log Value ([1]; 5000 ppm ε-PL, after 8 weeks): <0.30 | average of CFU/g ([1]; 5000 ppm ε-PL, after 8 weeks): <2.00E+00 CFU/g | Log Reduction ([1]; 5000 ppm ε-PL, after 8 weeks): >8.03 | average Log Value ([1]; 5000 ppm ε-PL, after 3 hours): 0.60 | average of CFU/g ([1]; 5000 ppm ε-PL, after 3 hours): 4.00E+00 CFU/g | Log Reduction ([1]; 5000 ppm ε-PL, after 3 hours): 2.18 | average Log Value ([1]; 5000 ppm ε-PL, after 24 hours): 0.73 | average of CFU/g ([1]; 5000 ppm ε-PL, after 24 hours): 5.33E+00 CFU/g | Log Reduction ([1]; 5000 ppm ε-PL, after 24 hours): >3.00 | outgrowth of Listeria ([1]; final concentration of 3000 ppm in ground turkey, eight week period, 10° C.): completely inhibited the outgrowth of Listeria | minimum inhibitory concentration (MIC) for the growth of many bacteria [2]: below 100 μg mL^−1

From patent US20060083830A1, “Polylysine-containing food additive and acidic adjuvant” (priority 2004, published 2006)
